These results are taken from patent US20140256693A1, “PYRROLO [1,2-C] IMIDAZOLE DERIVATIVES FOR USE IN THE PROPHYLAXIS OR TREATMENT OF CANCER WHICH IS REFRACTORY TO KNOWN CANCER THERAPIES” (TAKEDA PHARMACEUTICAL COMPANY LIMITED, priority 2007, published 2014).

The structures appear in SMILES notation.

This assay concerns castrated male cynomolguses. In words: Serum DHEA and testosterone in castrated male cynomolguses after repeated oral administration (RIA). The assay is classed as in vivo. To be noted: castrated male cynomolgus, 7.5 or 15 mg/kg/dose oral, twice a day for one week. As to the method:
(+)-6-(7-Hydroxy-6,7-dihydro-5H-pyrrolo[1,2-c]imidazol-7-yl)-N-methyl-2-naphthamide was used as a test compound belonging to compound (I′). For oral administration, the test compound was weighed and placed in a mortar, 0.5% methylcellulose solution was added thereto, and the mixture was sufficiently admixed with a pestle to give a suspension.
6 to 12-year-old castrated male cynomolguses were divided into two groups (7.5 mg/kg/time test compound administration group and 15 mg/kg/time test compound administration group) each including 3 cynomolguses such that blood DHEA concentration would be impartial. The test compound was repeatedly administered orally twice a day (bid) for one week. Blood samples were collected twice a day from 3 days prior to the administration through the final day of administration. Vehicle (0.5% methylcellulose) was administered about one month after the completion of administration, and blood samples were collected according to the same schedule. Serum DHEA and serum testosterone concentrations were measured by RIA (radioimmunoassay).
The serum DHEA concentrations of the test compound administration group are shown in FIG. 1, and the serum DHEA concentrations of the vehicle administration group where vehicle was administered about a month after completion of the administration of the test compound are shown in FIG. 2. […]

With `CNC(=O)c1ccc2cc(C3(O)CCn4cncc43)ccc2c1` (single isomer, unassigned; (+)) [test compound, (+)-6-(7-Hydroxy-6,7-dihydro-5H-pyrrolo[1,2-c]imidazol-7-yl)-N-methyl-2-naphthamide], under “FIG. 1, maintained at low levels during the administration period”, the “serum DHEA concentration” value is recorded as “decreased”. Besides, the serum testosterone concentration entry (FIG. 3, maintained at low levels during the administration period) was “decreased”.
